Active and inactive are the calls of the source. No cut-off for these calls is given here.
Tests used:
A498 = assay: Growth inhibition of human A498 cells at 10 uM after 48 hrs by sulforhodamine B assay; assay type: functional
HOP-62 = assay: Growth inhibition of human HOP62 cells at 10 uM after 48 hrs by sulforhodamine B assay; assay type: functional
786-0 = assay: Growth inhibition of human 786-0 cells at 10 uM after 48 hrs by sulforhodamine B assay; assay type: functional; conditions: 786-0, 48 h, read-out: GI
SF-295 = assay: Growth inhibition of human SF295 cells at 10 uM after 48 hrs by sulforhodamine B assay; assay type: functional
HL-60(TB) = assay: Growth inhibition of human HL-60(TB) cells at 10 uM after 48 hrs by sulforhodamine B assay; assay type: functional; conditions: HL-60, 48 h, read-out: GI
RPMI-8226 = assay: Growth inhibition of human RPMI8226 cells at 10 uM after 48 hrs by sulforhodamine B assay; assay type: functional
HT-29 = assay: Growth inhibition of human HT-29 cells at 10 uM after 48 hrs by sulforhodamine B assay; assay type: functional
OVCAR-3 = assay: Growth inhibition of human OVCAR3 cells at 10 uM after 48 hrs by sulforhodamine B assay; assay type: functional
KM12 = assay: Growth inhibition of human KM12 cells at 10 uM after 48 hrs by sulforhodamine B assay; assay type: functional
COLO 205 = assay: Growth inhibition of human COLO205 cells at 10 uM after 48 hrs by sulforhodamine B assay; assay type: functional
OVCAR-5 = assay: Growth inhibition of human OVCAR5 cells at 10 uM after 48 hrs by sulforhodamine B assay; assay type: functional
TK-10 = assay: Growth inhibition of human TK10 cells at 10 uM after 48 hrs by sulforhodamine B assay; assay type: functional
SR = assay: Growth inhibition of human SR cells at 10 uM after 48 hrs by sulforhodamine B assay; assay type: functional; conditions: read-out: GI
HOP-92 = assay: Growth inhibition of human HOP92 cells at 10 uM after 48 hrs by sulforhodamine B assay; assay type: functional
Hs-578T = assay: Growth inhibition of human Hs 578T cells at 10 uM after 48 hrs by sulforhodamine B assay; assay type: functional
LOX IMVI = assay: Growth inhibition of human LOXIMVI cells at 10 uM after 48 hrs by sulforhodamine B assay; assay type: functional; conditions: read-out: GI
NCI/ADR-RES = assay: Growth inhibition of human NCI-ADR-RES cells at 10 uM after 48 hrs by sulforhodamine B assay; assay type: functional
SK-MEL-2 = assay: Growth inhibition of human SK-MEL-2 cells at 10 uM after 48 hrs by sulforhodamine B assay; assay type: functional
CAKI-1 = assay: Growth inhibition of human CAKI-1 cells at 10 uM after 48 hrs by sulforhodamine B assay; assay type: functional
MCF7 = assay: Growth inhibition of human MCF7 cells at 10 uM after 48 hrs by sulforhodamine B assay; assay type: functional
SF-268 = assay: Growth inhibition of human SF268 cells at 10 uM after 48 hrs by sulforhodamine B assay; assay type: functional; conditions: SF-268, 48 h, read-out: GI
UACC-257 = assay: Growth inhibition of human UACC257 cells at 10 uM after 48 hrs by sulforhodamine B assay; assay type: functional
BT-549 = assay: Growth inhibition of human BT549 cells at 10 uM after 48 hrs by sulforhodamine B assay; assay type: functional; conditions: BT-549, 48 h, read-out: GI
NCI-H460 = assay: Growth inhibition of human NCI-H460 cells at 10 uM after 48 hrs by sulforhodamine B assay; assay type: functional
T47D = assay: Growth inhibition of human T47D cells at 10 uM after 48 hrs by sulforhodamine B assay; assay type: functional
NCI-H226 = assay: Growth inhibition of human NCI-H226 cells at 10 uM after 48 hrs by sulforhodamine B assay; assay type: functional
UACC-62 = assay: Growth inhibition of human UACC62 cells at 10 uM after 48 hrs by sulforhodamine B assay; assay type: functional
Carbonic anhydrase 9 = Carbonic anhydrase 9 (Homo sapiens, UniProt Q16790); assay: Inhibition of human carbonic anhydrase 9 after 15 mins by stopped flow CO2 hydration assay
UO-31 = assay: Growth inhibition of human UO31 cells at 10 uM after 48 hrs by sulforhodamine B assay; assay type: functional; conditions: UO-31, 48 h, read-out: GI
SF-539 = assay: Growth inhibition of human SF539 cells at 10 uM after 48 hrs by sulforhodamine B assay; assay type: functional
NCI-H322M = assay: Growth inhibition of human NCI-H322M cells at 10 uM after 48 hrs by sulforhodamine B assay; assay type: functional
MDA-MB-435 = assay: Growth inhibition of human MDA-MB-435 cells at 10 uM after 48 hrs by sulforhodamine B assay; assay type: functional
DU-145 = assay: Growth inhibition of human DU145 cells at 10 uM after 48 hrs by sulforhodamine B assay; assay type: functional
HCC 2998 = assay: Growth inhibition of human HCC2998 cells at 10 uM after 48 hrs by sulforhodamine B assay; assay type: functional
K562 = assay: Growth inhibition of human K562 cells at 10 uM after 48 hrs by sulforhodamine B assay; assay type: functional
MOLT-4 = assay: Growth inhibition of human MOLT4 cells at 10 uM after 48 hrs by sulforhodamine B assay; assay type: functional; conditions: MOLT-4, 48 h, read-out: GI
SK-OV-3 = assay: Growth inhibition of human SKOV3 cells at 10 uM after 48 hrs by sulforhodamine B assay; assay type: functional
RXF 393 = assay: Growth inhibition of human RXF393 cells at 10 uM after 48 hrs by sulforhodamine B assay; assay type: functional
OVCAR-4 = assay: Growth inhibition of human OVCAR4 cells at 10 uM after 48 hrs by sulforhodamine B assay; assay type: functional
SNB-75 = assay: Growth inhibition of human SNB75 cells at 10 uM after 48 hrs by sulforhodamine B assay; assay type: functional; conditions: SNB-75, 48 h, read-out: GI
IGROV-1 = assay: Growth inhibition of human IGROV1 cells at 10 uM after 48 hrs by sulforhodamine B assay; assay type: functional
SNB-19 = assay: Growth inhibition of human SNB19 cells at 10 uM after 48 hrs by sulforhodamine B assay; assay type: functional; conditions: SNB-19, 48 h, read-out: GI
OVCAR-8 = assay: Growth inhibition of human OVCAR8 cells at 10 uM after 48 hrs by sulforhodamine B assay; assay type: functional
CCRF-CEM = assay: Growth inhibition of human CCRF-CEM cells at 10 uM after 48 hrs by sulforhodamine B assay; assay type: functional; conditions: read-out: GI
MDA-MB-468 = assay: Growth inhibition of human MDA-MB-468 cells at 10 uM after 48 hrs by sulforhodamine B assay; assay type: functional
SK-MEL-5 = assay: Growth inhibition of human SK-MEL-5 cells at 10 uM after 48 hrs by sulforhodamine B assay; assay type: functional
SK-MEL-28 = assay: Growth inhibition of human SK-MEL-28 cells at 10 uM after 48 hrs by sulforhodamine B assay; assay type: functional, cell-based

**Q.** NS(=O)(=O)c1cnccc1N1CCN(c2ncccn2)CC1 was tested. Which “growth inhibition (GI)” value (A498) did it give?
**A.** inactive

**Q.** What about the “growth inhibition (GI)” value (HOP-62) of the same compound?
**A.** inactive

**Q.** What about the inhibition of growth at 10 µM (786-0) of the same compound?
**A.** 1%

**Q.** And the “growth inhibition (GI)” value (SF-295)?
**A.** inactive

**Q.** And the inhibition of growth at 10 µM (HL-60(TB))?
**A.** 9%

**Q.** And the “growth inhibition (GI)” value (RPMI-8226)?
**A.** inactive

**Q.** What about the “growth inhibition (GI)” value (HT-29) of the same compound?
**A.** inactive

**Q.** What about the “growth inhibition (GI)” value (OVCAR-3) of the same compound?
**A.** inactive

**Q.** What about the “growth inhibition (GI)” value (KM12) of the same compound?
**A.** inactive

**Q.** And the “growth inhibition (GI)” value (COLO 205)?
**A.** inactive

**Q.** What about the “growth inhibition (GI)” value (OVCAR-5) of the same compound?
**A.** inactive

**Q.** And the “growth inhibition (GI)” value (TK-10)?
**A.** inactive

**Q.** And the inhibition of growth at 10 µM (SR)?
**A.** 17%

**Q.** And the “growth inhibition (GI)” value (HOP-92)?
**A.** inactive

**Q.** And the “growth inhibition (GI)” value (Hs-578T)?
**A.** inactive

**Q.** And the inhibition of growth at 10 µM (LOX IMVI)?
**A.** 4%

**Q.** And the “growth inhibition (GI)” value (NCI/ADR-RES)?
**A.** inactive

**Q.** And the “growth inhibition (GI)” value (SK-MEL-2)?
**A.** inactive

**Q.** What about the “growth inhibition (GI)” value (CAKI-1) of the same compound?
**A.** inactive

**Q.** And the “growth inhibition (GI)” value (MCF7)?
**A.** inactive

**Q.** And the inhibition of growth at 10 µM (SF-268)?
**A.** 5%

**Q.** What about the “growth inhibition (GI)” value (UACC-257) of the same compound?
**A.** inactive

**Q.** What about the inhibition of growth at 10 µM (BT-549) of the same compound?
**A.** 7%

**Q.** And the “growth inhibition (GI)” value (NCI-H460)?
**A.** inactive

**Q.** What about the “growth inhibition (GI)” value (T47D) of the same compound?
**A.** inactive

**Q.** And the “growth inhibition (GI)” value (NCI-H226)?
**A.** inactive

**Q.** And the “growth inhibition (GI)” value (UACC-62)?
**A.** inactive

**Q.** And the Ki (Carbonic anhydrase 9)?
**A.** 78.3 nM

**Q.** What about the inhibition of growth at 10 µM (UO-31) of the same compound?
**A.** 15%

**Q.** What about the “growth inhibition (GI)” value (SF-539) of the same compound?
**A.** inactive

**Q.** And the “growth inhibition (GI)” value (NCI-H322M)?
**A.** inactive

**Q.** And the “growth inhibition (GI)” value (MDA-MB-435)?
**A.** inactive

**Q.** What about the “growth inhibition (GI)” value (DU-145) of the same compound?
**A.** inactive

**Q.** What about the “growth inhibition (GI)” value (HCC 2998) of the same compound?
**A.** inactive

**Q.** What about the “growth inhibition (GI)” value (K562) of the same compound?
**A.** inactive

**Q.** What about the inhibition of growth at 10 µM (MOLT-4) of the same compound?
**A.** 6%

**Q.** What about the “growth inhibition (GI)” value (SK-OV-3) of the same compound?
**A.** inactive

**Q.** What about the “growth inhibition (GI)” value (RXF 393) of the same compound?
**A.** inactive

**Q.** And the “growth inhibition (GI)” value (OVCAR-4)?
**A.** inactive

**Q.** And the inhibition of growth at 10 µM (SNB-75)?
**A.** 11%

**Q.** What about the “growth inhibition (GI)” value (IGROV-1) of the same compound?
**A.** inactive

**Q.** And the inhibition of growth at 10 µM (SNB-19)?
**A.** 1%

**Q.** What about the “growth inhibition (GI)” value (OVCAR-8) of the same compound?
**A.** inactive

**Q.** What about the inhibition of growth at 10 µM (CCRF-CEM) of the same compound?
**A.** 10%

**Q.** What about the “growth inhibition (GI)” value (MDA-MB-468) of the same compound?
**A.** inactive

**Q.** And the “growth inhibition (GI)” value (SK-MEL-5)?
**A.** inactive

**Q.** And the “growth inhibition (GI)” value (SK-MEL-28)?
**A.** inactive

From ChEMBL document CHEMBL2434896, “Carbonic anhydrase inhibitors. Synthesis of heterocyclic 4-substituted pyridine-3-sulfonamide derivatives and their inhibition of the human cytosolic isozymes I and II and transmembrane tumor-associated isozymes IX and XII” (Eur J Med Chem, 2013)
